Laboratory results: PMC8705986, “A Novel Angiotensin-I-Converting Enzyme (ACE) Inhibitory Peptide from Takifugu flavidus” (Marine Drugs, 2021)
Like-named read-outs stand apart in the source and are kept apart here.

Assays:
[1] = system: spontaneously hypertensive rats (SHRs); experiment: Antihypertensive effect in SHRs, intravenous, tail-cuff SBP/DBP; assay type: in vivo; settings: 5 mg/kg intravenous single dose
Experimental: Animals were obtained from Vital River Laboratory Animal Technology (Beijing, China), who also performed the blood pressure measurements in spontaneously hypertensive rats (SHRs) with a tail systolic blood pressure (SBP) of over 180 mmHg. Animals were fed a normal diet, and tap water was freely available. SHRs (11 weeks, 240 ± 20 g body weight) were raised at room temperature (25 °C) under a 12 h light/dark cycle. […] Captopril (5 mg/kg) was used as a positive control, and the negative control group was injected with an equal volume of saline. The SBP and DBP of the rats were measured using the tail-cuff method before administration and at 2, 4, 6, 12, and 24 h post-administration, using a BP-98A blood pressure monitor (Softron Biotechnology, Beijing, China) after heating the SHRs at 37 °C for 30 min in a warming chamber. All the rats received humane care conforming to the National Institutes of Health Guide for Care and Use of Laboratory Animals. This study was approved by the Ethics Committee of Guangdong medical laboratory animal center (No. 20211001).
Statistical analysis was performed using SPSS 19.0 software ([…]). Experimental data are presented as means ± standard deviations (SD) and were statistically evaluated using one-way analysis of variance (ANOVA) with Duncan’s test. Origin 9.0 (OriginLab, Northampton, MA, USA) software was used to process the data.

ACE = settings: cited from earlier work; for ACE-inhibitory activity, in words: shark meat hydrolysates, ref [16] Hao Wu et al.
Excerpt: (§1) Marine organisms, which are rich in unique bioactive proteins, have been widely used in the search for ACE-inhibitory peptides. According to previous studies, many novel ACE-inhibitory peptides with efficient antihypertensive effects were obtained from marine organisms. […] Liu et al. investigated the antihypertensive activity of a protein hydrolysate that was made from Rhopilema esc ...

SHRs = settings: oral administration in SHRs; ref [17] Lee et al.; cited from earlier work
Excerpt: as §1

[2] = biological target: T1, angiotensin-I-converting enzyme (ACE, EC 3.4.15.1, from rabbit lung) (rabbit) (UniProt P12822)
T1 sequence: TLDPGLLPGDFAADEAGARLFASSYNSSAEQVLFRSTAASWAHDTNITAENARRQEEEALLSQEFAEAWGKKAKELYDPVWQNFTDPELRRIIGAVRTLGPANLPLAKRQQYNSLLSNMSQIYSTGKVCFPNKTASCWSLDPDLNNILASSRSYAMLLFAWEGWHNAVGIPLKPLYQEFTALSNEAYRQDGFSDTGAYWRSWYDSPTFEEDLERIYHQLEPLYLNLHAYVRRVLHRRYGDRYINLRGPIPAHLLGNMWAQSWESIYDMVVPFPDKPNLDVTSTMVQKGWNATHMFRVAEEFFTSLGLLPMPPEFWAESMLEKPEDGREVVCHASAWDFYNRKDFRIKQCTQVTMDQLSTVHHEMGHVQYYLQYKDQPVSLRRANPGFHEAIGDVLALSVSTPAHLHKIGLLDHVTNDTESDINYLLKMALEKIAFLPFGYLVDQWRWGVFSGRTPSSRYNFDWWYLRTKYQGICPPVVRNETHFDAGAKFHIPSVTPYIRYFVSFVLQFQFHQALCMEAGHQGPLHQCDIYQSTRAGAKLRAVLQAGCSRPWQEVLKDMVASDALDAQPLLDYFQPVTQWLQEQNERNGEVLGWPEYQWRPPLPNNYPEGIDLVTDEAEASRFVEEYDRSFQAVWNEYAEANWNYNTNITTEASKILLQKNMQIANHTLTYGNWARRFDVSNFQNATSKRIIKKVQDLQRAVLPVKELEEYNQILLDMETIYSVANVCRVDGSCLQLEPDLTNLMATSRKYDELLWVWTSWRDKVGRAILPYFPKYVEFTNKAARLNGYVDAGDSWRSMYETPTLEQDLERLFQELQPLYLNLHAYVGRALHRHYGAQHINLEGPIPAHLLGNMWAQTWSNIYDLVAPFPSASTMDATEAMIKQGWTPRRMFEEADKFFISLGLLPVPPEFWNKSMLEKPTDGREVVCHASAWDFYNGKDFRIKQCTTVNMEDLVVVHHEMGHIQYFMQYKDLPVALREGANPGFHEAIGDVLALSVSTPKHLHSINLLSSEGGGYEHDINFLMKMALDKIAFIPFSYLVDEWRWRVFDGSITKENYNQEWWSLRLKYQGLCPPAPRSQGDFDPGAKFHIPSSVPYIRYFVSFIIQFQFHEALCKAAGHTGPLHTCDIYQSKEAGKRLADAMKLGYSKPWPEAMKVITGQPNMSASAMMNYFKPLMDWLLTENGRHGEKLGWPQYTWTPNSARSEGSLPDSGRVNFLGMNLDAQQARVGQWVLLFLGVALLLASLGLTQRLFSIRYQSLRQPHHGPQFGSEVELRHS

[3] = ref [14] Ghassem et al., read-out: IC50, ACE-inhibitory peptides from snakehead fish

## C[C@H](CS)C(=O)N1CCC[C@H]1C(=O)O [Captopril, captopril]
[1]; 4 h, p < 0.05
  systolic blood pressure (SBP) at 4 h: 151 mmHg
[1]; 24 h
  systolic blood pressure (SBP) at 24 h: 161 mmHg
[1]; value from which SBP fell
  systolic blood pressure (SBP), starting value: 190 mmHg

## Cys-Phe
ACE
  ACE-inhibitory activity, in words: high ACE-inhibitory activity

## Glu-Tyr
ACE
  ACE-inhibitory activity, in words: high ACE-inhibitory activity

## Gly-Asp-Leu-Gly-Lys-Thr-Thr-Thr-Val-Ser-Asn-Trp-Ser-Pro-Pro-Lys-Try-Lys-Asp-Thr-Pro [PTFP]
ACE; ref [17] Lee et al.
  ACE inhibition mode, tuna frame peptide: non-competitive inhibitor
ACE; ref [17] Lee et al., read-out: IC50, ACE-inhibitory peptide from tuna frame protein
  IC50: 11.3 µM
SHRs
  antihypertensive effect, in words: has an antihypertensive effect after oral administration in SHRs

## LYPPP
ACE; [3]
  IC50: 1.3 µM

## Met-Phe
ACE
  ACE-inhibitory activity, in words: high ACE-inhibitory activity

## Phe-Glu
ACE
  ACE-inhibitory activity, in words: high ACE-inhibitory activity

## YSMYPP
ACE; [3]
  IC50: 2.8 µM

## PPLLFAAL [PPLLFAAL (Pro-Pro-Leu-Leu-Phe-Ala-Ala-Leu)]
[2]
  ACE-inhibitory activity (hydrolysis of hippuryl-L-histidyl-L-leucine to hippuric acid, RP-HPLC at 220 nm, 37 °C, pH 8.3, 0.3 M NaCl), IC50 of the synthetic peptide: 28 μmol·L^−1
